Where “and” joins values, the source holds several entries; their conditions need not be identical. Equal values may be shown once.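 Growth conditions: 96-well plates. Treatment: test compound, 48 hours, 5 concentrations. Analysis: linear interpolation between bracketing concentrations; unreached endpoints set to highest concentration. GI50 = concentration required for 50% inhibition of growth. At the TGI there is no net growth.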
Assays:
Experiment in all cases: growth of human tumour cells (NCI), 48 h
A549 NSCLC = tested on: A549 NSCLC
EKVX NSCLC = tested on: EKVX NSCLC
HCC-2998 colon = tested on: HCC-2998 colon
HCT-15 colon = tested on: HCT-15 colon
HOP-62 NSCLC = tested on: HOP-62 NSCLC
LOX IMVI melanoma = tested on: LOX IMVI melanoma
OVCAR-5 ovarian = tested on: OVCAR-5 ovarian
OVCAR-8 ovarian = tested on: OVCAR-8 ovarian
SK-MEL-2 melanoma = tested on: SK-MEL-2 melanoma
COLO 205 colon = tested on: COLO 205 colon

Structure (SMILES)	TGI (A549 NSCLC)	TGI (EKVX NSCLC)	TGI (HCC-2998 colon)	TGI (HCT-15 colon)	TGI (HOP-62 NSCLC)	TGI (LOX IMVI melanoma)	TGI (OVCAR-5 ovarian)	TGI (OVCAR-8 ovarian)	TGI (SK-MEL-2 melanoma)	TGI (COLO 205 colon)	GI50 (A549 NSCLC) [µM]	GI50 (COLO 205 colon) [µM]	GI50 (EKVX NSCLC) [µM]	GI50 (HCC-2998 colon) [µM]	GI50 (HCT-15 colon) [µM]	GI50 (HOP-62 NSCLC) [µM]	GI50 (LOX IMVI melanoma) [µM]	GI50 (OVCAR-5 ovarian) [µM]	GI50 (OVCAR-8 ovarian) [µM]	GI50 (SK-MEL-2 melanoma) [µM]
NC(CCc1ccccc1)(C(=O)O)c1ccccc1 (stereo not drawn)	> 100 µM	> 100 µM	> 100 µM	> 100 µM	> 100 µM	> 100 µM	> 100 µM	> 100 µM	> 100 µM	–	–	–	–	–	–	–	–	–	–	–
NCCCCN	> 100 µM	> 100 µM	> 100 µM	> 100 µM	> 100 µM	> 100 µM	> 100 µM	> 100 µM	> 100 µM	> 100 µM	–	–	–	–	–	–	–	–	–	–
CC(C)c1ccc2c(c1)[C@@]1(C)CC[C@H](C)C(C)(C)C1CC2 (stereo partly drawn)	32.1 µM	35.2 µM	41.3 µM	34 µM	35.2 µM	32 µM	52.6 µM	33.1 µM	63.3 µM	42.1 µM	–	–	–	–	–	–	–	–	–	–
C[C@H](Nc1ccc(C#N)n(C)c1=O)c1cc2cc(Cl)ccc2[nH]c1=O	> 100 µM	> 100 µM	> 100 µM	> 100 µM	> 100 µM	> 100 µM	> 100 µM	> 100 µM	94 µM	40.2 µM	24.3	19	21.1	33.5	28.6	25.7	33.1	66.6	33.2	26.7
O=P(O)(O)OP(=O)(O)O	> 100 µM	> 100 µM	> 100 µM	> 100 µM	> 100 µM	> 100 µM	> 100 µM	> 100 µM	> 100 µM	> 100 µM	–	–	–	–	–	–	–	–	–	–
CC(C)(C)OC(=O)N1C[C@H](CC(=O)OCc2ccccc2)C[C@H]1C(=O)OCC(Cl)(Cl)Cl	> 50 µM	> 50 µM	45.3 µM	> 50 µM	> 50 µM	> 50 µM	> 50 µM	> 50 µM	23 µM	9.38 µM	–	–	–	–	–	–	–	–	–	–
COC1OC(C(=O)CP(=O)(OC)OC)C(OCc2ccccc2)C(OCc2ccccc2)C1OCc1ccccc1 (stereo not drawn)	31.2 µM and 31.9 µM	29.4 µM and 32.2 µM	31.5 µM and 29.7 µM	33.4 µM and 36.1 µM	32 µM and 32.5 µM	33.1 µM and 32.6 µM	29.2 µM and 31.8 µM	36.8 µM and 44.5 µM	30.7 µM and 31.3 µM	32.7 µM and 33.5 µM	–	–	–	–	–	–	–	–	–	–
CCN(CC)/[N+]([O-])=N/OC	> 100 µM	> 100 µM	> 100 µM	> 100 µM	> 100 µM	> 100 µM	> 100 µM	> 100 µM	> 100 µM	–	–	–	–	–	–	–	–	–	–	–
Cc1cc(O)c2c(c1O)C(=O)c1c(O)ccc(O)c1C2=O	> 100 µM	> 100 µM	> 100 µM	> 100 µM	> 100 µM	> 100 µM	> 100 µM	> 100 µM	> 100 µM	> 100 µM	–	–	–	–	–	–	–	–	–	–
CCOC(=O)C(=CNC(Cc1c[nH]c2ccccc12)C(=O)OC)C(=O)OCC (stereo not drawn)	–	> 100 µM	–	> 100 µM	–	> 100 µM	–	> 100 µM	> 100 µM	> 100 µM	–	–	–	–	–	–	–	–	–	–
COc1ccc(Cc2nc3cc(Cl)ccc3o2)cc1	> 100 µM	78.6 µM	56.8 µM	> 100 µM	> 100 µM	> 100 µM	> 100 µM	> 100 µM	63.8 µM	> 100 µM	–	–	–	–	–	–	–	–	–	–
CCCCCCOC(=O)C(N)Cc1ccc(OC)cc1 (stereo not drawn)	> 100 µM	> 100 µM	–	> 100 µM	> 100 µM	> 100 µM	> 100 µM	> 100 µM	> 100 µM	> 100 µM	–	–	–	–	–	–	–	–	–	–
COC(=N)C(C)C	> 100 µM	–	> 100 µM	> 100 µM	> 100 µM	> 100 µM	> 100 µM	–	–	> 100 µM	–	–	–	–	–	–	–	–	–	–
C/C(=C\CNc1ncnc2nc(Cl)[nH]c12)CO	> 100 µM	> 100 µM	> 100 µM	–	> 100 µM	> 100 µM	> 100 µM	> 100 µM	–	> 100 µM	–	–	–	–	–	–	–	–	–	–
O=S1c2ccccc2N=C(c2ccc3ccccc3c2)CC1c1ccccc1 (stereo not drawn)	41.3 µM	91.5 µM	36.6 µM	32.5 µM	> 100 µM	36.5 µM	42.9 µM	30 µM	92.3 µM	40 µM	–	–	–	–	–	–	–	–	–	–

— PubChem BioAssay (NCI)
